Measured values published in patent US9763444B2, “Compositions and methods for repelling blood-sucking and biting insects, ticks and mites” (The United States of America, as represented by the …, priority 2013, dated 2017).

Tests used:
Ae. aegypti [1] = assay: Minimum Effective Dosage (MED) test on treated cloth, mosquito repellency; assay type: in vivo, Aedes aegypti; conditions: for Ae. aegypti Minimum Effective Dosage, F1 / Ae. aegypti Minimum Effective Dosage, M1 / Ae. aegypti Minimum Effective Dosage, M2 / Ae. aegypti Minimum Effective Dosage, Average: Table 2; for Ae. aegypti Minimum Effective Dosage, F1: human subject F1; for Ae. aegypti Minimum Effective Dosage, F1 / Ae. aegypti Minimum Effective Dosage, M1 / Ae. aegypti Minimum Effective Dosage, M2: highest concentration 1.500 mg/cm^2; for Ae. aegypti Minimum Effective Dosage, M1: human subject M1; for Ae. aegypti Minimum Effective Dosage, M2: human subject M2; for Ae. aegypti Minimum Effective Dosage, Average: mean of 3 volunteers
Method: Bioassay for mosquito repellent activity: Repellency screening test for experimental chemicals were carried out to identify candidates that might be useful repellents. The repellent efficacy was compared to that of the standard repellent, DEET. Experimental compounds were assessed in one of two ways: (1) a range of concentration was evaluated to determine the minimum effective dosage (MED) which was the concentration threshold of where the repellent began to fail and allowed bites, or (2) a predetermined concentration of each repellent was applied to cloth and the activity was evaluated over several days (or in some cases months) (Katritzky, A. R., et al., Proc. Nat. Acad. Sci. (US), 105, 7359-7364 (2008); Katritzky, A. R., et al., Journal of Med. Entomol., 47: 924-938 (2010)). When conducting assays for repellency, a failure point was also predetermined for those measurements. Since experiments described herein used about 500 female mosquitoes per test, the failure point was set at 1% (equal to 5 bites) received during a test interval. From 3 to 5 volunteers participated in the screening of each set of chemicals.
Minimum Effective Dosage (MED) Test: The MED bioassays on treated cloth were a method of screening to determine the minimum amount of a repellent needed to prevent bites. Experimental compounds were prepared in solution by combining 0.15 g of experimental chemical with 2 mL of acetone in a 7.1 mL screwtop glass vial. This solution was then serially diluted to obtain nine concentrations when applied on to the cloth patch: 1.5, 0.75, 0.375, 0.187, 0.094, 0.047, 0.023, 0.011, and 0.006 mg/cm^2. The standard N,N-diethyl-3-methylbenzamide (DEET) was also tested at the same concentration levels to serve as a control and a comparison for relative repellency. A 50 cm^2 (5 cm×10 cm) patch of muslin cloth was rolled lengthwise and placed into each of the glass vials and scaled with a screwtop so it soaked up the solution. Just prior to the experiment, the pieces of treated cloth were removed from the vials, affixed to card stock tabs (5 cm×3 cm) with staples, and hung with masking tape on a rack to dry and allow acetone to evaporate. Volunteers wore a latex glove over their hands, a nylon stocking over their arm, and then wrapped a plastic Velcro-sealed sleeve over their entire forearm with a 32 cm^2 (4 cm×8 cm) window cut-out to allow mosquitoes to bite through. The nylon stocking acted as a barrier between the dried cloth and the skin, an additional precaution with experimental compounds. Dried cloth patches were stretched across the window in the plastic sleeve and held in place with masking tape. Volunteers placed their sleeve-covered arms into a screened cage for a one minute period with approximately 500 female Ae. aegypti mosquitoes that had been preselected for host-seeking behavior using a draw box (Posey, K. H., and C. E. Schreck, Mosquito News, 41: 566-568 (1981)). […] The MED recorded was the lowest passing concentration level tested for the experimental compound. […] All human volunteers in the study provided informed consent to participate of a protocol approved by the University of Florida Human Use Institutional Review Board (IRB #636-2005).

Ae. aegypti [2] = assay: Complete Protection Time test on treated cloth (duration of protection); assay type: in vivo, Aedes aegypti; conditions: Dosage 0.75 mg/cm^2 on cloth; for Duration of protection against Ae. aegypti, M-3 Days Protection: subject M-3
Method: Bioassay for mosquito repellent activity: Repellency screening test for experimental chemicals were carried out to identify candidates that might be useful repellents. The repellent efficacy was compared to that of the standard repellent, DEET. Experimental compounds were assessed in one of two ways: (1) a range of concentration was evaluated to determine the minimum effective dosage (MED) which was the concentration threshold of where the repellent began to fail and allowed bites, or (2) a predetermined concentration of each repellent was applied to cloth and the activity was evaluated over several days (or in some cases months) (Katritzky, A. R., et al., Proc. Nat. Acad. Sci. (US), 105, 7359-7364 (2008); Katritzky, A. R., et al., Journal of Med. Entomol., 47: 924-938 (2010)). When conducting assays for repellency, a failure point was also predetermined for those measurements. Since experiments described herein used about 500 female mosquitoes per test, the failure point was set at 1% (equal to 5 bites) received during a test interval. From 3 to 5 volunteers participated in the screening of each set of chemicals. Complete Protection Time Test: Complete protection time (CPT) on treated cloth is a method of screening that is used to determine the repellent duration for experimental chemicals that have not been examined for safe use on humans. The standard repellent DEET was used as a positive control as a benchmark by which to compare the repellents. Experimental compounds were prepared in solution by combining 0.075 g of experimental chemical with 1 mL of acetone in a 7.1-mL screwtop glass vial. The same concentration level of DEET was also prepared in this way to serve as a control and a comparison for relative repellency. A 50 cm^2 (5 cm×10 cm) patch of muslin cloth was rolled lengthwise and placed into each of the glass vials and sealed with a screwtop so it soaked up the solution. Just prior to the experiment, the pieces of treated cloth were removed from the vials, affixed to card stock tabs (5 cm×3 cm) with staples, and hung with masking tape on a rack to dry and allowed the volatile acetone to evaporate. Similar to the MED tests, volunteers wore a latex glove over their hands, a nylon stocking over their arm, and then wrapped a plastic Velcro-sealed sleeve over their entire forearm with a 32 cm^2 (4 cm×8 cm) window cut-out to allow mosquitoes to bite through. Dried cloth patches were stretched across the window in the plastic sleeve and held in place with masking tape. Volunteers placed their sleeve-covered arms into a screened cage for a one minute period with approximately 500 female Ae. aegypti mosquitoes that had been preselected for host-seeking behavior using a draw box. A cloth patch that received a 1% bite through level, equal to 5 mosquitoes that bit out of 500 mosquitoes, was considered a failure at that concentration. If 0-4 bites were received, then the treated cloth was still considered to be repellent at that concentration. The duration was recorded as the number of days an experimental chemical received a passing result, with day 0 being the day the sample was first dried. […] As with the tests conducted to determine CPT, volunteers in the study provided informed consent (IRB protocol #636-2005). The protocol was approved by the University of Florida Human Use Institutional Review Board.

| Compound | Ae. aegypti Minimum Effective Dosage, F1 (Ae. aegypti [1]) | Ae. aegypti Minimum Effective Dosage, M1 (Ae. aegypti [1]) | Ae. aegypti Minimum Effective Dosage, M2 (Ae. aegypti [1]) | Ae. aegypti Minimum Effective Dosage, Average (Ae. aegypti [1]) | Duration of protection, Proportion to DEET (Ae. aegypti [2]) | Duration of protection against Ae. aegypti, M-3 Days Protection (Ae. aegypti [2]) | mosquito repellent activity against Ae. aegypti (in words) (Ae. aegypti [1]; MED test on treated cloth) |
| --- | --- | --- | --- | --- | --- | --- | --- |
| CC1(C)C=Cc2cc(CCO)ccc2O1 [Compound 9] | 0.375 mg/cm^2 | 0.375 mg/cm^2 | 0.375 mg/cm^2 | 0.375 mg/cm^2 | 0.50 | 1 days | – |
| CC1(C)C=Cc2c(CO)ccc(Cl)c2O1 [Compound 11, (8-chloro-2,2-dimethyl-2H-chromen-5-yl)methanol] | 0.011 mg/cm^2 | 0.011 mg/cm^2 | 0.011 mg/cm^2 | 0.011 mg/cm^2 | 1.00 | – | act as mosquito repellents |
| CC1(C)C=Cc2c(C(=O)O)ccc(Cl)c2O1 [Compound 13, 8-chloro-2,2-dimethyl-2H-chromene-5-carboxylic acid] | >1.500 mg/cm^2 | >1.500 mg/cm^2 | >1.500 mg/cm^2 | – | 0.50 | 1 days | – |
